Experimental data as given in patent US10968183B2, “Small molecule FIEL1 inhibitor in inflammatory and fibrotic lung injury” (UNIVERSITY OF PITTSBURGH—OF THE COMMONWEALTH SYSTEM OF …, priority 2015, dated 2021).
Peptide text beside a SMILES is read from it. * marks the point of attachment. Cbz = O=C(OCc1ccccc1)*

Key:
[1] = test system: bleomycin-induced lung injury in C57BL/6J mice; assay: Bleomycin lung fibrosis model in mice; format: in vivo; details: bleomycin 0.05 U i.t., 7-21 days; estimated 5 mg/kg/d
Procedure: (§1) FIG. 7A. […] FIG. 7B. Structures of the BC-1480 backbone and lead compound BC-1485. FIG. 7C. FIEL1 protein was HIS-purified from FIEL1 expression in 293T cells using cobalt beads. Beads were then extensively washed prior to exposure to BC-1480 or BC-1485 at different concentrations (10^−4 to 100 μM). Purified PIAS4 protein was then incubated with drug-bound FIEL1 beads overnight. Beads were washed, and proteins were eluted and resolved on SDS-PAGE. The relative amounts of PIAS4 detected in the pull-downs was normalized to loading and quantified (n=2). FIG. 7D. MLE cells were exposed to BC-1480 or BC-1485 at various concentrations for 18 h. Cells were then collected and immunoblotted. FIGS. 7E-J. C57BL/6J mice were administered with bleomycin (0.05 U) for 7-21 days. Compounds BC-1480 and BC-1485 were given to mice through drinking water with an estimated dose of 5 mg/kg/d. Mice were euthanized, and lungs were lavaged with saline, harvested, and then homogenized. Lavage proteins, CXCL1, and total cell count were measured in FIGS. 7E-G. H. Survival studies of mice that were given bleomycin and compound treatments. Mice were carefully monitored over time; moribund, preterminal animals were immediately euthanized and recorded as deceased. Kaplan-Meier survival curves were generated using SPSS software (p<0.01 compared to Vehicle). Vehicle: n=24, BC-1480: n=13, BC-1485: n=12. FIG. 7I. Hydroxyproline contents were measured in lungs from 7, 14, and 21d after bleomycin challenge. FIG. 7J. Trichrome staining was performed on lung samples from E. Original magnification, ×10. *p<0.05 compared to Vehicle (t-test). Data are an average of two experiments (FIGS. 7E-J, 4-8 mice/group)
C57BL/6J mice were administered i.t. with bleomycin (0.05 U) for 7-21 days. Compounds BC-1480 and BC-1485 were given to mice through drinking water with an estimated dose of 5 mg/kg/d. Mice were then euthanized, and lungs were lavaged with saline, harvested, and then homogenized. Lavage IL-6 was measured in (FIG. 16A). Lavage cells were also processed for Wright-Giemsa stain; Lavage macrophages, neutrophils and lymphocytes were counted and graphed (FIGS. 16B-16D). H&E staining was performed on lung samples from A. Original magnification, ×10. *p<0.05 compared to Vehicle (t test). Data are an average of two experiments (A-E, 4-8 mice/group).
Murine lungs were dried and weighed prior to digestion with HCl. Hydroxyproline concentrations were measuring using methods previously described in Kesava Reddy et al., Clinical Biochemistry, 29(3): 225-229 (1996), and Neuman et al., J. of Biol. Chem., 184(1): 299-306 (1950). Hydroxyproline content was normalized to dry lung weight.
All procedures were approved by the University of Pittsburgh Institutional Animal Care and Use Committee. For fibrosis studies, male C57BL/6J mice were deeply anesthetized using a ketamine/xylazine mixture, and the larynx was well visualized under a fiber optic light source before endotracheal intubation with a 3/400 24-gauge plastic catheter. 10^7 CFU of lentivirus encoding genes for Empty (E), FIEL1, CON shRNA, or KIAA0317 shRNA was given i.t. for 144 h before administration of bleomycin (0.02 U˜0.05 U i.t.) for up to 21 days. Animals were euthanized and assayed for BAL protein, cell count, cytokines, and lung infiltrates. Survival studies were performed on mice that were given bleomycin (0.02 U˜0.05 U i.t.). Mice were carefully monitored over time; moribund, preterminal animals were immediately euthanized and recorded as deceased. For drug studies, mice were deeply anesthetized as above. Bleomycin (0.05 U i.t.) was given i.t. before BC-1480 or BC-1485 (5 mg/kg/d) was administered to the mice through their drinking water. 7-21d later, animals were euthanized and analyzed as above.

[2] = test system: α-SMA expression in MRC5 cells; assay: α-SMA expression in MRC5 cells co-treated with TGFβ; format: cell-based, human; details: Homo sapiens; MRC5 cells, TGFβ 2 ng/ml, 18 h; FIG. 15D; read-out: IC50 for decrease of α-SMA expression
Procedure: (§2) FIG. 15A. Diagram of the BC-1485 synthesis process. FIGS. 15B-15C. Docking studies of the lead compound, BC-1485, interacting with the FIEL1-HECT domain. FIG. 15D. MRC5 cells were treated with the compound at various doses; cells were also co-treated with TGFβ at 2 ng/ml. 18 h later, cells were collected and assayed for α-SMA expression. FIG. 15E. MRC5 cells were seeded in 35 mm glass bottom dishes before co-treatment with TGFβ at 2 ng/ml and BC-1480 or BC1485 at 5μM. FIG. 15F. PIAS4 protein half-life determination after BC-1480 or BC1485 treatment at 5μM for 18 h. FIG. 15G. PIAS4 and KIAA0317 mRNA analysis after BC1485 treatment for 18 h.
MLE cells were cultured in Dulbecco's Modified Eagle Medium-F12 (Gibco) supplemented with 10% fetal bovine serum (DMEM-10). 293T cells were cultured in Dulbecco's Modified Eagle Medium (Gibco) supplemented with 10% fetal bovine serum (DMEM-10). MRC5 cells were cultured in Eagle's Minimum Essential Medium (Gibco) supplemented with 10% fetal bovine serum (EMEM-10). For protein expression in MLE cells, nucleofection was used following Amaxa's protocol. For protein overexpression in 293T cells, Fugene6HD transfection reagents were used following the manufacturer's protocol. For protein expression in MRC5 cells, MRC-5 Cell Avalanche™ Transfection Reagent was used following manufacturer's protocol. Cells were treated with TGFβ at 0-2 ng/ml for 0-18 h. For FIEL1, PKCξ, or GSK3β knockdown studies in cells, scramble shRNA, KIAA0317, PKCξ, or GSK3β shRNA were used to transfect cells for 48 h. For drug treatment, compounds were solubilized in DMSO before being added to the cells for up to 18 h. Cell lysates were prepared by brief sonication in 150 mM NaCl, 50 mM Tris, 1.0 mM EDTA, 2 mM dithiothreitol, 0.025% sodium azide, and 1 mM phenylmethylsulfonyl fluoride (Buffer A) at 4° C. For half-life study, MLE cells were exposed to cycloheximide (40 μg/ml) in a time dependent manner for up to 8 h. Cells were then collected and immunoblotted.

[3] = target: T1, FIEL1/PIAS4 interaction (Homo sapiens, UniProt O15033); assay: In vitro drug binding assay: PIAS4 pull-down on drug-bound FIEL1 beads; details: FIG. 7
T1 construct: made in house; host or cells: 293T cells (FIEL1)
T1 sequence (O15033 1-789 isoform O15033-2): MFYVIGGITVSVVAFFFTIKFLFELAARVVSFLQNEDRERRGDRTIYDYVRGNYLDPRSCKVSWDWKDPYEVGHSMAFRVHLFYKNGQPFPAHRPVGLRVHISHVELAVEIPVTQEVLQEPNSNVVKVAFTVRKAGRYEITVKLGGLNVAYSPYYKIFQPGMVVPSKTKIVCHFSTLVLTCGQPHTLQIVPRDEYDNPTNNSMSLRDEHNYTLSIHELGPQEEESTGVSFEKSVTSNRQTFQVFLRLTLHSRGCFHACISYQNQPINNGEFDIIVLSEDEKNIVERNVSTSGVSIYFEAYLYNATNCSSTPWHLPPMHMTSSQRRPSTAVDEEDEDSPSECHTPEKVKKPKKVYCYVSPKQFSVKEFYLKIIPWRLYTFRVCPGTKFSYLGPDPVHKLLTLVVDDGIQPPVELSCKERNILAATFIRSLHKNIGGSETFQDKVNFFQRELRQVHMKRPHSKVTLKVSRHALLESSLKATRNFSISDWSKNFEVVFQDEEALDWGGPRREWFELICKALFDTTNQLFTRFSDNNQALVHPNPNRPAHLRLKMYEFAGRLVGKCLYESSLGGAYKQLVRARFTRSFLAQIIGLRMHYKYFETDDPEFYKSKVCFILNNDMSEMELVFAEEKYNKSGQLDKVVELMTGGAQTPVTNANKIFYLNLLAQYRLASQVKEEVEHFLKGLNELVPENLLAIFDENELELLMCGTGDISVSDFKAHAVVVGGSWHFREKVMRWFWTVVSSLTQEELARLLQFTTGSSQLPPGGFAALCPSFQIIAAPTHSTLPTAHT
Procedure: as §1
FIEL1 protein was HIS-purified from FIEL1 expression 293T cells using cobalt beads. Beads were then extensively washed prior to exposure to BC-1480 or BC-1485 at different concentrations (10^−4 to 100 μM). Purified recombinant PIAS4 protein was then incubated with drug-bound FIEL1 beads overnight. […] The relative amounts of PIAS4 detected in the pull-downs were normalized to loading and quantified.

[4] = test system: PIAS4; assay: PIAS4 protein half-life study (cycloheximide) in MLE cells; format: cell-based, murine; details: addition of proteasomal or lysosomal inhibitor; FIG. 9B
Source text: FIG. 9A. PIAS4 protein half-life study in MLE cells transfected with Empty plasmid or Ubiquitin plasmid. FIG. 9B. PIAS4 protein half-life study with MG132 or Leupeptin. FIG. 9C. Immunoblots showing levels of PIAS4 proteins and V5 after ectopic FIEL1 or UBE3B plasmid expression. FIG. 9D. Immunoblots showing levels of FIEL1 proteins after ectopic FIEL1 plasmid expression in MLE, HeLa, and 293T cells. FIG. 9E. Immunoblots showing levels of PIAS4 proteins and V5 after ectopic FIEL1 plasmid expression in HeLa and 293T cells. FIG. 9F. MLE cells were transfected with an inducible control or FIEL1 plasmid under control of exogenous doxycycline. Cells were treated with doxycycline in a dose dependent manner. Cells were then collected and cell lysates were immunoblotted for FIEL1 and PIAS4. FIG. 9G. MRC5 cells were exposed to TGFβ for 24 h before being assayed for PIAS4 and FIEL1 protein half-lives.
as §2
MLE cells were cultured in Dulbecco's Modified Eagle Medium-F12 (Gibco) supplemented with 10% fetal bovine serum (DMEM-10). 293T cells were cultured in Dulbecco's Modified Eagle Medium (Gibco) supplemented with 10% fetal bovine serum (DMEM-10). MRC5 cells were cultured in Eagle's Minimum Essential Medium (Gibco) supplemented with 10% fetal bovine serum (EMEM-10). For protein expression in MLE cells, nucleofection was used following Amaxa's protocol. For protein overexpression in 293T cells, Fugene6HD transfection reagents were used following the manufacturer's protocol. […]

SMILES	lung (pulmonary) fibrosis [1]	IC50 [2] [µM]	inhibition of FIEL1 and PIAS4 interaction [3]	PIAS4 protein half-life [4]
O=C(O)c1ccc(NS(=O)(=O)c2ccc3[nH]c(=O)[nH]c3c2)cc1 [BC-1480, 4-(2-oxo-2,3-dihydro-1H-benzo[d]imidazole-5-sulfonamido)benzoic acid]	inhibition of pulmonary fibrosis	~4	inhibition of FIEL1 and PIAS4 interaction	–
CC(=O)N[C@@H](CC(C)C)C(=O)N[C@@H](CC(C)C)C(=O)N[C@H](C=O)CCCNC(=N)N [Leupeptin]	–	–	–	an effect unobserved
CC(C)C[C@@H](C=O)NC(=O)[C@H](CC(C)C)NC(=O)[C@H](CC(C)C)NC(=O)OCc1ccccc1 [MG132] (Cbz-Leu-Leu-Leu-aldehyde)	–	–	–	significantly increased
